# According to US10597388B2, “Pyridazinone herbicides” (FMC CORPORATION, priority 2014, dated 2020):
# What was measured:
# Experiment in all cases: Test C greenhouse herbicide test, pre- and postemergence
# Type in all cases: in vivo
# [1] = tested on: galium (catchweed bedstraw, Galium aparine)
# Excerpt: (§1) Seeds of plant species selected from blackgrass (Alopecurus myosuroides), ryegrass, Italian (Italian ryegrass, Lolium multiflorum), wheat (winter wheat, Triticum aestivum), galium (catchweed bedstraw, Galium aparine), corn (Zea mays), large crabgrass, large (large crabgrass, Digitaria sanguinalis), foxtail, giant (giant foxtail, Setaria faberii), johnsongrass (Sorghum halepense), lambsquarters (Chenopodium album), morningglory (Ipomoea coccinea), nutsedge, yellow (yellow nutsedge, Cyperus esculentus), pigweed (Amaranthus retroflexus), ragweed (common ragweed, Ambrosia elatior), soybean (Glycine max), barnyardgrass (Echinochloa crus-galli), oilseed rape (Brassica napus), waterhemp (common waterhemp, Amaranthus rudis), and velvetleaf (Abutilon theophrasti) were planted into a blend of loam soil and sand and treated preemergence with test chemicals formulated in a non-phytotoxic solvent mixture which included a surfactant.
# (§2) At the same time, plants selected from these crop and weed species and also chickweed (common chickweed, Stellaria media), kochia (Kochia scoparia), and oat, wild (wild oat, Avena fatua), were planted in pots containing Redi-Earth® planting medium (Scotts Company, 14111 Scottslawn Road, Marysville, Ohio 43041) comprising spaghnum peat moss, vermiculite, wetting agent and starter nutrients and treated with postemergence applications of test chemicals formulated in the same manner. Plants ranged in height from 2 to 18 cm (1- to 4-leaf stage) for postemergence treatments. Treated plants and controls were maintained in a greenhouse for 13 to 15 d, after which time all species were compared to controls and visually evaluated. Plant response ratings, summarized in Table C, are based on a scale of 0 to 100 where 0 is no effect and 100 is complete control. A dash (-) response means no test result.
# [2] = tested on: corn (Zea mays)
# Excerpt: as §1, §2
# [3] = tested on: ryegrass, Italian (Italian ryegrass, Lolium multiflorum)
# Excerpt: as §1, §2
# [4] = tested on: waterhemp (common waterhemp, Amaranthus rudis)
# Excerpt: as §1, §2
# [5] = tested on: johnsongrass (Sorghum halepense)
# Excerpt: as §1, §2
# [6] = tested on: velvetleaf (Abutilon theophrasti)
# Excerpt: as §1, §2
# [7] = tested on: foxtail, giant (giant foxtail, Setaria faberii)
# Excerpt: as §1, §2
# [8] = tested on: blackgrass (Alopecurus myosuroides)
# Excerpt: as §1, §2
# [9] = tested on: nutsedge, yellow (yellow nutsedge, Cyperus esculentus)
# Excerpt: as §1, §2
# [10] = tested on: barnyardgrass (Echinochloa crus-galli)
# Excerpt: as §1, §2
# [11] = tested on: lambsquarters (Chenopodium album)
# Excerpt: as §1, §2
# [12] = tested on: morningglory (Ipomoea coccinea)
# Excerpt: as §1, §2
# [13] = tested on: pigweed (Amaranthus retroflexus)
# Excerpt: as §1, §2
# [14] = tested on: ragweed (common ragweed, Ambrosia elatior)
# Excerpt: as §1, §2
# [15] = tested on: soybean (Glycine max)
# Excerpt: as §1, §2
# [16] = tested on: wheat (winter wheat, Triticum aestivum)
# Excerpt: as §1, §2
# [17] = Postemergence, 31 g ai/ha, 0 to 100 scale (0 no effect, 100 complete control)
# [18] = Postemergence, 125 g ai/ha, scale 0 to 100, 0 is no effect, 100 is complete control
# [19] = Postemergence, 250 g ai/ha, scale 0 to 100, 0 no effect, 100 complete control, 13 to 15 d
# [20] = Preemergence, 31 g ai/ha, scale 0 to 100, 0 is no effect, 100 is complete control
# [21] = Preemergence, 62 g ai/ha, scale 0 to 100, 0 is no effect, 100 is complete control
# [22] = Preemergence, 125 g ai/ha, scale 0 to 100, 0 is no effect, 100 is complete control
# [23] = Preemergence, 250 g ai/ha, scale 0 to 100 (0 no effect, 100 complete control)
# [24] = postemergence, 62 g ai/ha, scale 0 to 100, 0 no effect, 100 complete control
smiles,measurement,setting,value
CCOC(=O)Oc1c(C)nn(C)c(=O)c1-c1c(CC)ccc2ccccc12 [Compound 37],Galium plant response rating,[1]; [17],90
same,"Plant response rating, Galium",[1]; [18],95
same,"Plant response rating, Galium",[1]; [19],95
same,"Plant response rating, Galium",[1]; [20],100
same,"Plant response rating, Galium",[1]; [21],90
same,"Plant response rating, Galium",[1]; [22],95
same,Galium plant response rating,[1]; [23],100
same,Galium plant response rating,[1]; [24],95
same,Corn plant response rating,[2]; [17],0
same,"Plant response rating, Corn",[2]; [18],20
same,"Plant response rating, Corn",[2]; [19],30
same,"Plant response rating, Corn",[2]; [20],0
same,"Plant response rating, Corn",[2]; [21],0
same,"Plant response rating, Corn",[2]; [22],0
same,Corn plant response rating,[2]; [23],20
same,Corn plant response rating,[2]; [24],10
same,"Ryegrass, Italian plant response rating",[3]; [17],80
same,"Plant response rating, Ryegrass, Italian",[3]; [18],90
same,"Plant response rating, Ryegrass, Italian",[3]; [19],90
same,"Plant response rating, Ryegrass, Italian",[3]; [20],50
same,"Plant response rating, Ryegrass, Italian",[3]; [21],85
same,"Plant response rating, Ryegrass, Italian",[3]; [22],90
same,"Ryegrass, Italian plant response rating",[3]; [23],95
same,"Ryegrass, Italian plant response rating",[3]; [24],85
same,Waterhemp plant response rating,[4]; [17],85
same,"Plant response rating, Waterhemp",[4]; [18],80
same,"Plant response rating, Waterhemp",[4]; [19],98
same,"Plant response rating, Waterhemp",[4]; [20],90
same,"Plant response rating, Waterhemp",[4]; [21],95
same,"Plant response rating, Waterhemp",[4]; [22],95
same,Waterhemp plant response rating,[4]; [23],100
same,Waterhemp plant response rating,[4]; [24],80
same,Johnsongrass plant response rating,[5]; [17],0
same,"Plant response rating, Johnsongrass",[5]; [18],5
same,"Plant response rating, Johnsongrass",[5]; [19],35
same,"Plant response rating, Johnsongrass",[5]; [20],0
same,"Plant response rating, Johnsongrass",[5]; [21],0
same,"Plant response rating, Johnsongrass",[5]; [22],5
same,Johnsongrass plant response rating,[5]; [23],0
same,Johnsongrass plant response rating,[5]; [24],5
same,Velvetleaf plant response rating,[6]; [17],20
same,"Plant response rating, Velvetleaf",[6]; [18],85
same,"Plant response rating, Velvetleaf",[6]; [19],90
same,"Plant response rating, Velvetleaf",[6]; [20],25
same,"Plant response rating, Velvetleaf",[6]; [21],80
same,"Plant response rating, Velvetleaf",[6]; [22],85
same,Velvetleaf plant response rating,[6]; [23],90
same,Velvetleaf plant response rating,[6]; [24],70
same,"Foxtail, Giant plant response rating",[7]; [17],25
same,"Plant response rating, Foxtail, Giant",[7]; [18],60
same,"Plant response rating, Foxtail, Giant",[7]; [19],85
same,"Plant response rating, Foxtail, Giant",[7]; [20],65
same,"Plant response rating, Foxtail, Giant",[7]; [21],75
same,"Plant response rating, Foxtail, Giant",[7]; [22],85
same,"Foxtail, Giant plant response rating",[7]; [23],85
same,"Foxtail, Giant plant response rating",[7]; [24],35
same,Blackgrass plant response rating,[8]; [17],35
same,"Plant response rating, Blackgrass",[8]; [18],80
same,"Plant response rating, Blackgrass",[8]; [19],85
same,"Plant response rating, Blackgrass",[8]; [20],10
same,"Plant response rating, Blackgrass",[8]; [21],30
same,"Plant response rating, Blackgrass",[8]; [22],90
same,Blackgrass plant response rating,[8]; [23],90
same,Blackgrass plant response rating,[8]; [24],40
same,"Nutsedge, Yellow plant response rating",[9]; [17],20
same,"Plant response rating, Nutsedge, Yellow",[9]; [18],65
same,"Plant response rating, Nutsedge, Yellow",[9]; [19],60
same,"Plant response rating, Nutsedge, Yellow",[9]; [20],0
same,"Plant response rating, Nutsedge, Yellow",[9]; [21],20
same,"Plant response rating, Nutsedge, Yellow",[9]; [22],40
same,"Nutsedge, Yellow plant response rating",[9]; [23],60
same,"Nutsedge, Yellow plant response rating",[9]; [24],40
same,Barnyardgrass plant response rating,[10]; [17],25
same,"Plant response rating, Barnyardgrass",[10]; [18],60
same,"Plant response rating, Barnyardgrass",[10]; [19],90
same,"Plant response rating, Barnyardgrass",[10]; [20],10
same,"Plant response rating, Barnyardgrass",[10]; [21],30
same,"Plant response rating, Barnyardgrass",[10]; [22],70
same,Barnyardgrass plant response rating,[10]; [23],80
same,Barnyardgrass plant response rating,[10]; [24],20
same,Lambsquarters plant response rating,[11]; [17],90
same,"Plant response rating, Lambsquarters",[11]; [18],95
same,"Plant response rating, Lambsquarters",[11]; [19],100
same,"Plant response rating, Lambsquarters",[11]; [20],85
same,"Plant response rating, Lambsquarters",[11]; [21],60
same,"Plant response rating, Lambsquarters",[11]; [22],85
same,Lambsquarters plant response rating,[11]; [23],90
same,Lambsquarters plant response rating,[11]; [24],90
same,Morningglory plant response rating,[12]; [17],90
same,"Plant response rating, Morningglory",[12]; [18],98
same,"Plant response rating, Morningglory",[12]; [19],98
same,"Plant response rating, Morningglory",[12]; [20],70
same,"Plant response rating, Morningglory",[12]; [21],80
same,"Plant response rating, Morningglory",[12]; [22],90
same,Morningglory plant response rating,[12]; [23],98
same,Morningglory plant response rating,[12]; [24],95
same,Pigweed plant response rating,[13]; [17],85
same,"Plant response rating, Pigweed",[13]; [18],95
same,"Plant response rating, Pigweed",[13]; [19],95
same,"Plant response rating, Pigweed",[13]; [20],98
same,"Plant response rating, Pigweed",[13]; [21],98
same,"Plant response rating, Pigweed",[13]; [22],100
same,Pigweed plant response rating,[13]; [23],100
same,Pigweed plant response rating,[13]; [24],100
same,Ragweed plant response rating,[14]; [17],90
same,"Plant response rating, Ragweed",[14]; [18],98
same,"Plant response rating, Ragweed",[14]; [19],98
same,"Plant response rating, Ragweed",[14]; [20],85
same,"Plant response rating, Ragweed",[14]; [21],90
same,"Plant response rating, Ragweed",[14]; [22],95
same,Ragweed plant response rating,[14]; [23],98
same,Ragweed plant response rating,[14]; [24],95
same,Soybean plant response rating,[15]; [17],10
same,"Plant response rating, Soybean",[15]; [18],15
same,"Plant response rating, Soybean",[15]; [19],25
same,"Plant response rating, Soybean",[15]; [20],0
same,"Plant response rating, Soybean",[15]; [21],30
same,"Plant response rating, Soybean",[15]; [22],20
same,Soybean plant response rating,[15]; [23],65
same,Soybean plant response rating,[15]; [24],5
same,Wheat plant response rating,[16]; [17],30
same,"Plant response rating, Wheat",[16]; [18],30
same,"Plant response rating, Wheat",[16]; [19],35
same,"Plant response rating, Wheat",[16]; [20],0
same,"Plant response rating, Wheat",[16]; [21],0
same,"Plant response rating, Wheat",[16]; [22],5
same,Wheat plant response rating,[16]; [23],45
same,Wheat plant response rating,[16]; [24],0
